Here are results for seven molecules from PMC7287031 (Pharmacology Research & Perspectives, 2020).

In data set [1] the test system is CYP enzymes that metabolise ribociclib in HLM (total metabolism; CYP-selective chemical inhibitors). Kind of data set: Inhibition of [3H] ribociclib total metabolism in HLM by CYP- and FMO-selective inhibitors. Format: in vitro ADME. Conditions: both, human, human liver microsomes, pH 7.4, probe [3H] ribociclib.
Data set [2] is described as follows: Human ADME study: quantitative metabolite profiling in plasma. The data set is classed as in vivo. Also on record: AUC0-48h: concentration or dose not given beside the values. The procedure:
A plasma pool across the six healthy volunteers included in the study was prepared at the time points of 1 hour, 3 hours, 24 hours, and 48 hours post dose. For each time point, an equal volume of plasma was taken from each subject and combined. Plasma pool samples were processed by protein precipitation with acetonitrile. The protein pellet that resulted from precipitation with acetonitrile was washed further with additional aliquots of acetonitrile. All acetonitrile washes were combined and evaporated under nitrogen. For the 3‐ and 24‐hour plasma pools, the extraction procedure was slightly modified, including precipitation of the plasma proteins by addition of a 1:1 mixture of acetonitrile:methanol, followed by washing of the protein pellet with the same solvent mixture. All extracts were reconstituted with a solution of 15‐mM ammonium formate and acetonitrile (95:5 v/v). Extraction and reconstitution recoveries were measured in all four plasma samples in order to calculate and overall recovery. Quantitative metabolite profiling in plasma was accomplished using a Shimadzu Prominence high‐performance liquid chromatography (HPLC) system (Shimadzu, Columbia, MD, USA), coupled with fraction collection and analysis of total radioactivity in individual fractions using AMS (as described above). A second injection of each sample, conducted immediately after the first, was used to provide HPLC fractions for metabolite identification. The fractions identified as containing radioactivity from the AMS analysis were analyzed by HPLC coupled with high‐resolution mass spectrometry to identify the metabolites. The HPLC‐MS/MS methodology used is described below.

The nature of data set [3]: Human ADME study: quantitative metabolite profiling in urine and feces. Format: in vivo. Conditions: for Excretion (% of dose), Total: urine plus feces, pooled excreta n=6. The procedure: Average pools across the six subjects were also created by combining equal percentages (of total urine and feces excreted over the time interval) of the individual subject pools. Urine pools were analyzed directly for metabolite profiling (column recovery of a representative sample was measured), whereas feces pools were subjected to extraction. Specifically, to each aliquot of feces homogenate, two volumes of acetonitrile were added. After centrifugation, the pellet was washed further with an additional two volumes of acetonitrile. […] All washes were combined, evaporated under nitrogen, and reconstituted with a solution of 15‐mM ammonium formate (pH 3.5). This feces extract reconstitute was analyzed for metabolite profiling. Combined extraction and reconstitution (overall recovery) and column recovery were measured. […] The HPLC column used was a Phenomenex Kinetex, C18, 250 × 4.6 mm, equipped with a pre‐column of the same type (2.1 × 4.6 mm), which was placed in a column oven at 40°C. […] The HPLC gradient was as follows: initial conditions were 5% mobile phase B for 1 minute, then increased to 20% at 10 minutes post injection where it was held (isocratic) up to 20 minutes. […] The post column flow was directed to the fraction collector operated in a time‐slice mode and containing 96‐well Lumaplates (Perkin Elmer). The plates were dried at room temperature and the radioactivity was measured using a microplate scintillation counter model TopCount NXT (Perkin Elmer) instrument (up to 3 × 100‐minute counting time). […] Metabolites were identified during the same injections using data generated by the high‐resolution mass spectrometer. The molecular ions and key fragments of each drug‐related component were determined. Key fragments for each metabolite were derived from their product ion mass spectra and were used to determine the metabolite structures. Where possible, structural assignments were supported by exact mass measurement, comparison with synthetic standards and/or Hydrogen/Deuterium (H/D) exchange LC‐MS(/MS).

The nature of data set [4]: Contribution of metabolites to total pharmacological activity in human. To be noted: considering in vitro measurements and in vivo exposure.
Substrate in data set [5]: CN(C)C(=O)c1cc2cnc(Nc3ccc(N4CCNCC4)cn3)nc2n1C1CCCC1
The data set can be described thus: Enzyme kinetics with recombinant CYP3A5 and scaling to HLM. To be noted: other: recombinant CYP3A5; 37.0 °C. The data set is classed as in vitro ADME, human. The procedure:
(§1) In vitro incubations were carried out in 100‐mM potassium phosphate buffer (pH 7.4) and 5‐mM MgCl2 with a total volume of 200 µL. Substrate and either human liver microsomes (HLM, BD Biosciences, mixed gender pool of n = 50) or recombinant human enzymes (BD Biosciences) were added and pre‐incubated for 3 minutes at 37°C. The reaction was started by addition of a fresh solution of NADPH (1 mmol/L final concentration). The samples were incubated at 37°C with agitation of 500 rpm. For incubations with CYP2A6, CYP2C9, CYP2C18, and CYP4A11, the phosphate buffer was replaced by TRIS buffer (100 mmol/L, pH 7.4) and for flavin‐containing monooxygenases (FMOs), a glycine buffer (50 mM, pH 9.5) was used.
(§2) The enzymatic reaction was stopped and the protein was precipitated by addition of an equal volume of methanol. After 30 min at −80°C, the samples were centrifuged at 30'000 x g for 15 min. The supernatant was withdrawn. Aliquots were analyzed by LSC and the supernatant was diluted with water to obtain a final solution containing less than 20% of the organic solvent. For samples of low substrate concentration, supernatants were evaporated to dryness under nitrogen, then re‐suspended in water containing less than 20% of methanol. Samples were analyzed by HPLC combined with radiodetection.
(§3) The relative contribution of CYP enzymes to oxidative hepatic metabolism was determined using their Clint values multiplied by the unbound fraction in microsomes and their abundances in human liver microsomes. ^15 Among the hepatic P450 enzymes, CYP3A4 contributed predominantly (97%) to metabolism in human liver microsomes (Table 1) with negligible fraction metabolized by CYP1A2 (1.1%), CYP2J2 (0.8%), and CYP3A5 (1.2%).

Substrate in data set [6]: CN(C)C(=O)c1cc2cnc(Nc3ccc(N4CCNCC4)cn3)nc2n1C1CCCC1
Kind of data set: Enzyme kinetics with recombinant CYP1A2 and scaling to HLM. The data set is classed as in vitro ADME, human. Conditions: other: recombinant CYP1A2; 37.0 °C. As to the method: as §1, §2, §3

[7] abbreviates: human plasma pools n=6, from metabolite patterns.

As for `CC[C@]1(C)C[C@@H](OC(=O)CSc2nnc(N)[nH]2)[C@]2(C)[C@H](C)CC[C@]3(CCC(=O)[C@H]32)[C@@H](C)[C@@H]1O` [Azamulin], the IC50 in data set [1] stood at 1050 nM.

Turning to `CN(C)C(=O)c1cc2cnc(Nc3ccc(N4CCN(S(=O)(=O)O)CC4)cn3)nc2n1C1CCCC1` [M8 (CQM386)], in data set [2] (setting [7]), the AUC0-48h was determined as 0.0142 µM·h and the “AUC0-48h, % of total [14C]-AUC0-48” value is 0.0297%. The “Concentration in plasma pool” value in data set [2] (human, 1 h post dose, pool n=6, from metabolite patterns) is on record as 9.50 nM. The “Excretion (% of dose), Total” value in data set [3] is on record as < 5.21 % of dose.

As to `CN(C)C(=O)c1cc2cnc(Nc3ccc(N4CCN(O)CC4)cn3)nc2n1C1CCCC1` [M13 (CCI284)], the “AUC0-48h, % of total [14C]-AUC0-48” value in data set [2] (setting [7]) stood at 9.39%. Further, in data set [2] (human plasma, AUC0-48), the “metabolite exposure as % of ribociclib exposure” value is listed as 21.6%. Besides, in data set [4], the “contribution to total pharmacological activity in human” value was “not to have a relevant contribution to total pharmacological activity”.

`CN(CO)C(=O)c1cc2cnc(Nc3ccc(N4CCNCC4)cn3)nc2n1C1CCCC1` [M15]: in data set [2] (human plasma), the “detection in plasma (AMS metabolite profiling)” value was “not observed in plasma”. Also, the “Excretion (% of dose), Urine” value in data set [3] (pooled excreta n=6, from metabolite patterns (radio profiling)) was 1.50 % of dose. Further, the “Excretion (% of dose), Total” value in data set [3] is listed as 1.50 % of dose.

As to `CC(C)(O)c1ccccc1CC[C@@H](SCC1(CC(=O)O)CC1)c1cccc(/C=C/c2ccc3ccc(Cl)cc3n2)c1` [Montelukast], in data set [1], the IC50 was > 2000 nM.

B1: CYP3A5 (Homo sapiens) (protein)
chain: MDLIPNLAVETWLLLAVSLVLLYLYGTRTHGLFKRLGIPGPTPLPLLGNVLSYRQGLWKFDTECYKKYGKMWGTYEGQLPVLAITDPDVIRTVLVKECYSVFTNRRSLGPVGFMKSAISLAEDEEWKRIRSLLSPTFTSGKLKEMFPIIAQYGDVLVRNLRREAEKGKPVTLKDIFGAYSMDVITGTSFGVNIDSLNNPQDPFVESTKKFLKFGFLDPLFLSIILFPFLTPVFEALNVSLFPKDTINFLSKSVNRMKKSRLNDKQKHRLDFLQLMIDSQNSKETESHKALSDLELAAQSIIFIFAGYETTSSVLSFTLYELATHPDVQQKLQKEIDAVLPNKAPPTYDAVVQMEYLDMVVNETLRLFPVAIRLERTCKKDVEINGVFIPKGSMVVIPTYALHHDPKYWTEPEEFRPERFSKKKDSIDPYIYTPFGTGPRNCIGMRFALMNMKLALIRVLQNFSFKPCKETQIPLKLDTQGLLQPEKPIVLKVDSRDGTLSGE
notes: purchased BD Biosciences
B1: in data set [5], the Km was 23.9 µM, the kcat turned out to be 0.0122 s⁻¹ and the kcat/Km is 517 M⁻¹ s⁻¹.

B2: CYP1A2 (Homo sapiens) (protein)
chain: MALSQSVPFSATELLLASAIFCLVFWVLKGLRPRVPKGLKSPPEPWGWPLLGHVLTLGKNPHLALSRMSQRYGDVLQIRIGSTPVLVLSRLDTIRQALVRQGDDFKGRPDLYTSTLITDGQSLTFSTDSGPVWAARRRLAQNALNTFSIASDPASSSSCYLEEHVSKEAKALISRLQELMAGPGHFDPYNQVVVSVANVIGAMCFGQHFPESSDEMLSLVKNTHEFVETASSGNPLDFFPILRYLPNPALQRFKAFNQRFLWFLQKTVQEHYQDFDKNSVRDITGALFKHSKKGPRASGNLIPQEKIVNLVNDIFGAGFDTVTTAISWSLMYLVTKPEIQRKIQKELDTVIGRERRPRLSDRPQLPYLEAFILETFRHSSFLPFTIPHSTTRDTTLNGFYIPKKCCVFVNQWQVNHDPELWEDPSEFRPERFLTADGTAINKPLSEKMMLFGMGKRRCIGEVLAKWEIFLFLAILLQQLEFSVPPGVKVDLTPIYGLTMKHARCEHVQARLRFSIN
notes: purchased BD Biosciences
Consider B2, for which, in data set [6], the Km is 48 µM, the kcat is 0.0185 s⁻¹ and the kcat/Km is 383 M⁻¹ s⁻¹.
